The assay deals with ATR kinase (full-length ATR) (Homo sapiens (Human), UniProt Q13535). In words: ATR inhibition assay (radioactive-phosphate incorporation). In kind it is biochemical. The method, then:
Compounds were screened for their ability to inhibit ATR kinase using a radioactive-phosphate incorporation assay. Assays were carried out in a mixture of 50 mM Tris/HCl (pH 7.5), 10 mM MgCl2 and 1 mM DTT. Final substrate concentrations were 10 μM [γ-33P]ATP (3mCi 33P ATP/mmol ATP, Perkin Elmer) and 800 μM target peptide ([…]) (SEQ ID NO:1).
Assays were carried out at 25° C. in the presence of 5 nM full-length ATR. An assay stock buffer solution was prepared containing all of the reagents listed above, with the exception of ATP and the test compound of interest. 13.5 μL of the stock solution was placed in a 96 well plate followed by addition of 2 μL of DMSO stock containing serial dilutions of the test compound (typically starting from a final concentration of 15 μM with 3-fold serial dilutions) in duplicate (final DMSO concentration 7%). The plate was pre-incubated for 10 minutes at 25° C. and the reaction initiated by addition of 15 μL [γ-33P]ATP (final concentration 10 μM).
The reaction was stopped after […] by the addition of 30 μL 0.1M phosphoric acid containing 2 mM ATP. A multiscreen phosphocellulose filter 96-well plate (Millipore, Cat no. MAPHN0B50) was pretreated with 100 μL 0.2M phosphoric acid prior to the addition of […] of the stopped assay mixture. The plate was washed with 5×200 μL 0.2M phosphoric acid. After drying, 100 μL Optiphase ‘SuperMix’ liquid scintillation cocktail (Perkin Elmer) was added to the well prior to scintillation counting (1450 Microbeta Liquid Scintillation Counter, Wallac).
After removing mean background values for all of the data points, Ki(app) data were calculated from non-linear regression analysis of the initial rate data using the Prism software package (GraphPad Prism version 3.0cx for Macintosh, GraphPad Software, San Diego Calif., USA).

Setting [1] is: Ki(app), 5 nM full-length ATR, 10 μM ATP, 25° C.

Where two headings read alike, the source gives them in different places. Bounds are passed on as bounds.

ATR kinase (full-length ATR), sequence (Q13535 whole entry): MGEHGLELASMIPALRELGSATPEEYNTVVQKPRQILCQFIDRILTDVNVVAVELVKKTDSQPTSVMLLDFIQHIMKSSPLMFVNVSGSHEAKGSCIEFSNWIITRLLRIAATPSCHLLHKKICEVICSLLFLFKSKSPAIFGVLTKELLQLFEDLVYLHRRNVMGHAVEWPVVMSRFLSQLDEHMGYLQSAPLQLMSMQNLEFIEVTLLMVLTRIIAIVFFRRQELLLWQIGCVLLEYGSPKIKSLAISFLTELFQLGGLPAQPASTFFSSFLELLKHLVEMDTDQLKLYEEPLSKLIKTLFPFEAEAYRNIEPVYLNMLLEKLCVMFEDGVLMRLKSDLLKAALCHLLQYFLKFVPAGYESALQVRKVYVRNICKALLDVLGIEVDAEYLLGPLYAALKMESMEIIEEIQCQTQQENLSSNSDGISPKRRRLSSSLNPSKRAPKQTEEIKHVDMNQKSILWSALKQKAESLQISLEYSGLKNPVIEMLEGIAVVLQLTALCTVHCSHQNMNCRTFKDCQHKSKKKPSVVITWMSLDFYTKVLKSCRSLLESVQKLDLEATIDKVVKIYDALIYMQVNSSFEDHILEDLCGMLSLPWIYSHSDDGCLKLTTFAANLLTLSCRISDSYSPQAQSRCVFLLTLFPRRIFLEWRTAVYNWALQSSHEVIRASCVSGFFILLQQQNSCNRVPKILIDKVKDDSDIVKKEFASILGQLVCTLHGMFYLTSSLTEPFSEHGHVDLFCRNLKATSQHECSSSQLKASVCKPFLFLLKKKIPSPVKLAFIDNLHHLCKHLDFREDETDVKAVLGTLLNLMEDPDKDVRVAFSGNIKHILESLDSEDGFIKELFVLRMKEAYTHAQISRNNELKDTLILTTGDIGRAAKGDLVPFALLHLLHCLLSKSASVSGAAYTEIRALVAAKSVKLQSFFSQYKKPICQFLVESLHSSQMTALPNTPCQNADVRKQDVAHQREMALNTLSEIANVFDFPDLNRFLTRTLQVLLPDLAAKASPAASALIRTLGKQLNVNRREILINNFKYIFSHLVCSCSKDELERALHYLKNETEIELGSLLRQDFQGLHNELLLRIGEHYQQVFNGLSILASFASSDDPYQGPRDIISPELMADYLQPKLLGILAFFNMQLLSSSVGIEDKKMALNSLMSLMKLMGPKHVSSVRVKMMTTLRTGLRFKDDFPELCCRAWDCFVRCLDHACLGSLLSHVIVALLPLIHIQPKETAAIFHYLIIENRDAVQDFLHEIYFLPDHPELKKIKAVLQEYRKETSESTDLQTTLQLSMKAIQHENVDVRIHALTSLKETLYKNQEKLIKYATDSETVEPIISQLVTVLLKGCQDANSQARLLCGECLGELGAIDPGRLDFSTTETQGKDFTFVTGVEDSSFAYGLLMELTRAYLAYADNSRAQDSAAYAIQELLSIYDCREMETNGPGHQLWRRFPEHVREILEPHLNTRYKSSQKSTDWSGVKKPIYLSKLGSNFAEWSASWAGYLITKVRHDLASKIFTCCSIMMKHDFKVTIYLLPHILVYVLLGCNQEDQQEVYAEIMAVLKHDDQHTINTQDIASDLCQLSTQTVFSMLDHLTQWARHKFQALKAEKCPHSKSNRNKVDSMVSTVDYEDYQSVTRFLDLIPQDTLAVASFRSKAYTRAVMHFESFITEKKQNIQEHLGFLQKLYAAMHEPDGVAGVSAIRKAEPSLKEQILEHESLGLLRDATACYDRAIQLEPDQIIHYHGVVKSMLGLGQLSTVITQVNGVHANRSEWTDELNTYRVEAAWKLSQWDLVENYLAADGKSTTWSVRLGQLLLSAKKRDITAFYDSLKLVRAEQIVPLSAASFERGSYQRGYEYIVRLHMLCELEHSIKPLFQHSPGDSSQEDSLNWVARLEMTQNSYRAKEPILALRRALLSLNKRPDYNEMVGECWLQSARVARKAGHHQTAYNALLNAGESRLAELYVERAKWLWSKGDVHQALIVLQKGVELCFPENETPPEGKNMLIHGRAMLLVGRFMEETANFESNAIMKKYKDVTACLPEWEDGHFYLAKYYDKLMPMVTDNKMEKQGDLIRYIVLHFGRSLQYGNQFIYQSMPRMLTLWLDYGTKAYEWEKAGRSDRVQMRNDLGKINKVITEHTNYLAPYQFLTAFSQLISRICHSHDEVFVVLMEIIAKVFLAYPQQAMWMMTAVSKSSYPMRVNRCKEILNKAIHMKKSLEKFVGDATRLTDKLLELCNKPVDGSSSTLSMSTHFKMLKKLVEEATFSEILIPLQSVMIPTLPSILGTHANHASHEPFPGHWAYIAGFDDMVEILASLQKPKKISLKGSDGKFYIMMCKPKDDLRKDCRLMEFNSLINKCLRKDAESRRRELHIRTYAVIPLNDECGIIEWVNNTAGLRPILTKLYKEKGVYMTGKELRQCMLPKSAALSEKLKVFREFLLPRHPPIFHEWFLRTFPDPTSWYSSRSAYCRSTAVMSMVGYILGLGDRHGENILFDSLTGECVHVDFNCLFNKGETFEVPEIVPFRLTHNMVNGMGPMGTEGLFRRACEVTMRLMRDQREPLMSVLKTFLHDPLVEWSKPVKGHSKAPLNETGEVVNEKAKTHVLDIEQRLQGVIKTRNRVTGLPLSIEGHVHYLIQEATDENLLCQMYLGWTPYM

For `CN(C)[C@H]1CCN(c2ccncc2NC(=O)c2c(N)nn3cc(Cl)cnc23)C[C@@H]1O` [I-N-35, 2-amino-6-chloro-N-(4-((3S,4S)-4-(dimethylamino)-3-hydroxypiperidin-1-yl)pyridin-3-yl)pyrazolo[1,5-a]pyrimidine-3-carboxamide], the Ki lay in the range of 1000 to 5000 nM.
Take `COC1(CN(C)C)CCN(c2ccncc2NC(=O)c2c(N)nn3cc(Cl)cnc23)CC1` [I-N-46, 2-amino-6-chloro-N-(4-(4-((dimethylamino)methyl)-4-methoxypiperidin-1-yl)pyridin-3-yl)pyrazolo[1,5-a]pyrimidine-3-carboxamide]: the Ki under setting [1] was in the range of 10 to 1000 nM.
As for `Nc1nn2cc(Cl)cnc2c1C(=O)Nc1cnccc1O[C@H]1CCCNC1` [I-O-74, (S)-2-amino-6-chloro-N-(4-(piperidin-3-yloxy)pyridin-3-yl)pyrazolo[1,5-a]pyrimidine-3-carboxamide], the Ki under setting [1] was in the range of 10 to 1000 nM.
For the molecule `Cc1ccncc1NC(=O)c1c(N)nn2cc(F)cnc12` [I-C-4, 2-amino-6-fluoro-N-(4-methylpyridin-3-yl)pyrazolo[1,5-a]pyrimidine-3-carboxamide], the Ki under setting [1] was in the range of 10 to 1000 nM.
Take `Cc1nncn1-c1ccncc1NC(=O)c1c(N)nn2cc(F)cnc12` [I-N-263, 2-amino-6-fluoro-N-(4-(3-methyl-4H-1,2,4-triazol-4-yl)pyridin-3-yl)pyrazolo[1,5-a]pyrimidine-3-carboxamide]: the Ki under setting [1] lay within 10 to 1000 nM.
Take `Nc1nn2cc(F)cnc2c1C(=O)Nc1cncc(F)c1N1CCC(C(=O)N2CC(F)C2)CC1` [I-G-74, 2-amino-6-fluoro-N-(5-fluoro-4-(4-(3-fluoroazetidine-1-carbonyl)piperidin-1-yl)pyridin-3-yl)pyrazolo[1,5-a]pyrimidine-3-carboxamide]: under setting [1], the Ki lay in the range of 10 to 1000 nM.
For `Cc1nccnc1-c1ccncc1NC(=O)c1c(N)nn2cc(F)cnc12` [I-C-62, 2-amino-6-fluoro-N-(4-(3-methylpyrazin-2-yl)pyridin-3-yl)pyrazolo[1,5-a]pyrimidine-3-carboxamide], the Ki under setting [1] was 10 to 1000 nM.
On the same count and under the same terms, next, `Nc1nn2cc(F)cnc2c1C(=O)Nc1cnccc1C1CCN(S(=O)(=O)C2CC2)CC1` [I-C-47, 2-amino-N-(4-(1-(cyclopropylsulfonyl)piperidin-4-yl)pyridin-3-yl)-6-fluoropyrazolo[1,5-a]pyrimidine-3-carboxamide]: 10 to 1000 nM; `Nc1nn2cc(F)cnc2c1C(=O)Nc1cnccc1N1CCN([C@H]2CCOC2)CC1` [I-N-12, (S)-2-amino-6-fluoro-N-(4-(4-(tetrahydrofuran-3-yl)piperazin-1-yl)pyridin-3-yl)pyrazolo[1,5-a]pyrimidine-3-carboxamide]: 10 to 1000 nM; `Nc1nn2cc(F)cnc2c1C(=O)Nc1cnccc1C1CC1` [I-C-42, 2-amino-N-(4-cyclopropylpyridin-3-yl)-6-fluoropyrazolo[1,5-a]pyrimidine-3-carboxamide]: 10 to 1000 nM.
On the same count and under the same terms, next, `CN1CCN(c2c(F)cncc2NC(=O)c2c(N)nn3cc(Cl)cnc23)CC1` [I-N-14, 2-amino-6-chloro-N-(5-fluoro-4-(4-methylpiperazin-1-yl)pyridin-3-yl)pyrazolo[1,5-a]pyrimidine-3-carboxamide]: 10 to 1000 nM.
Turning to `Nc1nn2cc(Cl)cnc2c1C(=O)Nc1cnccc1N1CCC(N2CCn3cncc3C2)CC1` [I-N-101, 2-amino-6-chloro-N-(4-(4-(5,6-dihydroimidazo[1,5-a]pyrazin-7(81-1)-yl)piperidin-1-yl)pyridin-3-yl)pyrazolo[1,5-a]pyrimidine-3-carboxamide], under setting [1], the Ki was in the range of 10 to 1000 nM.
As to `Nc1nn2cc(F)cnc2c1C(=O)Nc1cncc(F)c1N1CCN(S(=O)(=O)C2CC2)CC1` [I-N-159, 2-amino-N-(4-(4-(cyclopropylsulfonyl)piperazin-1-yl)-5-fluoropyridin-3-yl)-6-fluoropyrazolo[1,5-a]pyrimidine-3-carboxamide], the Ki under setting [1] lay in the range of 10 to 1000 nM.
Regarding `N#CCc1cnc2c(C(=O)Nc3cnccc3N3CCCC3)c(N)nn2c1` [I-N-77, 2-amino-6-(cyanomethyl)-N-(4-(pyrrolidin-1-yl)pyridin-3-yl)pyrazolo[1,5-a]pyrimidine-3-carboxamide], under setting [1], the Ki lay within 10 to 1000 nM.
As to `Nc1nn2cc(Cl)cnc2c1C(=O)Nc1cnccc1OC1CCCOC1` (stereo not drawn) [I-O-65, 2-amino-6-chloro-N-(4-((tetrahydro-2H-pyran-3-yl)oxy)pyridin-3-yl)pyrazolo[1,5-a]pyrimidine-3-carboxamide], under setting [1], the Ki lay in the range of 10 to 1000 nM.
Consider `N#CCc1cnc2c(C(=O)Nc3cnccc3OC3CCC3)c(N)nn2c1` [I-O-36, 2-amino-6-(cyanomethyl)-N-(4-cyclobutoxypyridin-3-yl)pyrazolo[1,5-a]pyrimidine-3-carboxamide], for which, under setting [1], the Ki was below 10 nM.
Same read-out and setting: next, `COCCN(C)C(=O)C1CCN(c2c(F)cncc2NC(=O)c2c(N)nn3cc(F)cnc23)CC1` [I-G-40, 2-amino-6-fluoro-N-(5-fluoro-4-(4-((2-methoxyethyl)(methyl)carbamoyl)piperidin-1-yl)pyridin-3-yl)pyrazolo[1,5-a]pyrimidine-3-carboxamide]: 10 to 1000 nM; `Nc1nn2cc(Cl)cnc2c1C(=O)Nc1cnccc1O[C@@H]1CCCNC1` [I-O-81, (R)-2-amino-6-chloro-N-(4-(piperidin-3-yloxy)pyridin-3-yl)pyrazolo[1,5-a]pyrimidine-3-carboxamide]: 10 to 1000 nM.
The same measure, in the same setting: the same measure for `CS(=O)(=O)CC1CCN(c2ccncc2NC(=O)c2c(N)nn3cc(F)cnc23)CC1` [I-N-215, 2-amino-6-fluoro-N-(4-(4-((methylsulfonyl)methyl)piperidin-1-yl)pyridin-3-yl)pyrazolo[1,5-a]pyrimidine-3-carboxamide]: 10 to 1000 nM; for `N#CCc1cnc2c(C(=O)Nc3cnccc3OCCCO)c(N)nn2c1` [I-O-40, 2-amino-6-(cyanomethyl)-N-(4-(3-hydroxypropoxy)pyridin-3-yl)pyrazolo[1,5-a]pyrimidine-3-carboxamide]: below 10 nM; for `CN1CCN(C(=O)C2CCN(c3c(F)cncc3NC(=O)c3c(N)nn4cc(F)cnc34)CC2)CC1(C)C` [I-G-15, 2-amino-6-fluoro-N-(5-fluoro-4-(4-(3,3,4-trimethylpiperazine-1-carbonyl)piperidin-1-yl)pyridin-3-yl)pyrazolo[1,5-a]pyrimidine-3-carboxamide]: 10 to 1000 nM.
Turning to `Nc1nn2cc(F)cnc2c1C(=O)Nc1cnccc1O[C@H]1CCCNC1` [I-O-85, (S)-2-amino-6-fluoro-N-(4-(piperidin-3-yloxy)pyridin-3-yl)pyrazolo[1,5-a]pyrimidine-3-carboxamide], the Ki under setting [1] was 10 to 1000 nM.
As for `Nc1nn2cc(Cl)cnc2c1C(=O)Nc1cnccc1N1CCC(N2CC(F)(F)C2)CC1` [I-N-108, 2-amino-6-chloro-N-(4-(4-(3,3-difluoroazetidin-1-yl)piperidin-1-yl)pyridin-3-yl)pyrazolo[1,5-a]pyrimidine-3-carboxamide], the Ki under setting [1] lay in the range of 10 to 1000 nM.
With `Nc1nn2cc(F)cnc2c1C(=O)Nc1cnccc1N1CCC(C(=O)N2CCC3(COC3)C2)CC1` [I-G-84, N-(4-(4-(2-oxa-6-azaspiro[3.4]octane-6-carbonyl)piperidin-1-yl)pyridin-3-yl)-2-amino-6-fluoropyrazolo[1,5-a]pyrimidine-3-carboxamide], the Ki under setting [1] lay within 10 to 1000 nM.
Turning to `CCn1cncc1-c1ccncc1NC(=O)c1c(N)nn2cc(F)cnc12` [I-C-80, 2-amino-N-(4-(1-ethyl-1H-imidazol-5-yl)pyridin-3-yl)-6-fluoropyrazolo[1,5-a]pyrimidine-3-carboxamide], under setting [1], the Ki is 10 to 1000 nM.
With `Nc1nn2cc(F)cnc2c1C(=O)Nc1cncc(F)c1N1CCN2C(=O)OC[C@@H]2C1` [I-N-248, (S)-2-amino-6-fluoro-N-(5-fluoro-4-(3-oxotetrahydro-1H-oxazolo[3,4-a]pyrazin-7(3H)-yl)pyridin-3-yl)pyrazolo[1,5-a]pyrimidine-3-carboxamide], the Ki under setting [1] fell in the range of 10 to 1000 nM.
`CN1C2CCC1CN(C(=O)C1CCN(c3c(F)cncc3NC(=O)c3c(N)nn4cc(F)cnc34)CC1)C2` [I-G-52, 2-amino-6-fluoro-N-(5-fluoro-4-(4-(8-methyl-3,8-diazabicyclo[3.2.1]octane-3-carbonyl)piperidin-1-yl)pyridin-3-yl)pyrazolo[1,5-a]pyrimidine-3-carboxamide]: under setting [1], the Ki lay in the range of 10 to 1000 nM.
Regarding `COCCN1CCN(c2ccncc2NC(=O)c2c(N)nn3cc(F)cnc23)CC1` [I-N-22, 2-amino-6-fluoro-N-(4-(4-(2-methoxyethyl)piperazin-1-yl)pyridin-3-yl)pyrazolo[1,5-a]pyrimidine-3-carboxamide], the Ki under setting [1] was 10 to 1000 nM.
As to `Nc1nn2cc(F)cnc2c1C(=O)Nc1cnccc1N1CCN(S(=O)(=O)C2CC2)CC1` [I-N-176, 2-amino-N-(4-(4-(cyclopropylsulfonyl)piperazin-1-yl)pyridin-3-yl)-6-fluoropyrazolo[1,5-a]pyrimidine-3-carboxamide], under setting [1], the Ki was 10 to 1000 nM.
As to `COCCn1cncc1-c1ccncc1NC(=O)c1c(N)nn2cc(F)cnc12` [I-C-83, 2-amino-6-fluoro-N-(4-(1-(2-methoxyethyl)-1H-imidazol-5-yl)pyridin-3-yl)pyrazolo[1,5-a]pyrimidine-3-carboxamide], under setting [1], the Ki lay within 10 to 1000 nM.

The values above are taken from US10392391B2 (Vertex Pharmaceuticals Incorporated, priority 2012, dated 2019).
